Experiment: mn = molality of the nth substance listed, in mol/kg
Settings: 101 kPa, Liquid; for mass density: Pycnometric method; for viscosity / speed of sound: 308.15 K; for viscosity: Capillary tube (Ostwald / Ubbelohde) method; for speed of sound: Linear variable-path acoustic interferometer

O=[N+]([O-])[O-].O=[N+]([O-])[O-].[Mg+2] [magnesium nitrate] + O
Settings	mass density [kg/m3]
306.45 K, m1 = 0.0145	995.89
306.5 K, m1 = 0.896	1083.6
306.5 K, m1 = 3.096	1266.4
306.65 K, m1 = 0.5931	1054
306.65 K, m1 = 3.501	1294.4
306.7 K, m1 = 3.118	1267.2
306.7 K, m1 = 3.757	1310.9
306.7 K, m1 = 5.134	1397
306.75 K, m1 = 4.728	1373.4
306.8 K, m1 = 3.17	1276
307.05 K, m1 = 0.6173	1056.6
307.05 K, m1 = 4.883	1379.9
307.25 K, m1 = 1.827	1167
307.45 K, m1 = 4.039	1327.9
307.6 K, m1 = 2.584	1228.1
307.65 K, m1 = 4.97	1385.7
307.7 K, m1 = 3.704	1307.2
307.8 K, m1 = 2.793	1243.4
307.9 K, m1 = 1.694	1154
307.95 K, m1 = 0.2491	1020.1
308.1 K, m1 = 4.403	1351
308.35 K, m1 = 0.9898	1091.9
308.4 K, m1 = 1.525	1138.7
308.45 K, m1 = 1.262	1116
308.55 K, m1 = 0.3405	1028.5
308.7 K, m1 = 5.282	1404.1
308.75 K, m1 = 3.757	1309.6
308.85 K, m1 = 3.096	1265
308.85 K, m1 = 4.285	1343.6
308.95 K, m1 = 3.118	1265.8
309 K, m1 = 0.896	1082.4
309.05 K, m1 = 4.728	1371.9
309.25 K, m1 = 2.131	1191
309.3 K, m1 = 2.493	1218.8
309.35 K, m1 = 4.883	1378.4
309.4 K, m1 = 4.051	1326.7
309.5 K, m1 = 0.0145	994.82
309.5 K, m1 = 0.5931	1052.8
309.5 K, m1 = 0.6173	1055.5
309.6 K, m1 = 0.0528	999.02
309.65 K, m1 = 1.827	1165.8
309.75 K, m1 = 4.97	1384.3
309.9 K, m1 = 2.584	1226.7
309.95 K, m1 = 3.704	1305.7

Settings	speed of sound [m/s]	viscosity [mPa·s]
m1 = 0.0145	1520.8	0.7364
m1 = 0.0528	1522.6	0.745
m1 = 0.2491	1536.2	0.7877
m1 = 0.3405	1539.2	–
m1 = 0.5931	–	0.8757
m1 = 0.6173	1559.2	–
m1 = 0.896	1578.7	–
m1 = 0.9898	1585.6	1.005
m1 = 1.262	1602.4	1.11
m1 = 1.525	1621.7	–
m1 = 1.827	1644.8	1.342
m1 = 2.131	1666.7	1.498
m1 = 2.493	1688	–
m1 = 2.584	–	1.777
m1 = 2.793	1708.9	–
m1 = 3.096	–	2.146
m1 = 3.118	1728.7	–
m1 = 3.17	1735.9	–
m1 = 3.329	–	2.343
m1 = 3.501	1752.2	–
m1 = 3.704	–	2.692
m1 = 3.757	1770.5	–
m1 = 4.039	–	3.089
m1 = 4.051	1781.1	–
m1 = 4.285	1794.4	–
m1 = 4.403	1800.6	–
m1 = 4.728	–	4.262
m1 = 4.883	1826.2	–
m1 = 4.907	–	4.654
m1 = 5.134	1838.4	–
m1 = 5.282	–	5.506

— the NIST ThermoML archive (doi:10.1021/je060107n)
